According to publication PMC2562941 (Molecular carcinogenesis, 2008):
Each block holds one compound with its values, some of them ahead of it.

Assays:
[1] = test system: colorectal cancer cell lines; details: independent of COX activity; cited from earlier work
[2] = test system: 1.2-dimethylhydrazine-induced colon carcinogenesis; details: rats; 8 mg/kg body weight every day for 30 weeks; cited from earlier work
COX-2 = details: ref 7 (Jang et al.); cited from earlier work
[3] = test system: COX-2^+/+ murine embryonic fibroblasts; assay: Cell growth of COX-2+/+ murine embryonic fibroblasts; details: 10 μM, after 6 days
[4] = test system: HT-29 human colon cancer cells; assay: Cell growth of HT-29 cells; format: cell-based; details: each at 10 μM; growth curves over 5 days; vs untreated control
JB6 Cl41 cells = details: cited from earlier work
COX-2^+/+ cells = assay: COX-2-mediated PGE2 production ex vivo in COX-2+/+ cells; format: cell-based, murine; details: for IC50: Mus musculus, read-out: IC50, suppression of PGE2 synthesis ex vivo
[5] = test system: COX-2^−/− murine embryonic fibroblasts; assay: Cell growth of COX-2-/- murine embryonic fibroblasts; details: 10 μM, after 6 days
HT-29 colon cancer cells = assay: Soft agar colony formation assay; format: cell-based, human; details: HT-29 cells; 10 or 20 μM; 10 days
[6] = biological target: T1, recombinant human COX-2 enzyme (Homo sapiens, UniProt P35354); assay: COX-2-mediated PGE2 production in vitro; format: biochemical
T1 sequence (P35354 18-604): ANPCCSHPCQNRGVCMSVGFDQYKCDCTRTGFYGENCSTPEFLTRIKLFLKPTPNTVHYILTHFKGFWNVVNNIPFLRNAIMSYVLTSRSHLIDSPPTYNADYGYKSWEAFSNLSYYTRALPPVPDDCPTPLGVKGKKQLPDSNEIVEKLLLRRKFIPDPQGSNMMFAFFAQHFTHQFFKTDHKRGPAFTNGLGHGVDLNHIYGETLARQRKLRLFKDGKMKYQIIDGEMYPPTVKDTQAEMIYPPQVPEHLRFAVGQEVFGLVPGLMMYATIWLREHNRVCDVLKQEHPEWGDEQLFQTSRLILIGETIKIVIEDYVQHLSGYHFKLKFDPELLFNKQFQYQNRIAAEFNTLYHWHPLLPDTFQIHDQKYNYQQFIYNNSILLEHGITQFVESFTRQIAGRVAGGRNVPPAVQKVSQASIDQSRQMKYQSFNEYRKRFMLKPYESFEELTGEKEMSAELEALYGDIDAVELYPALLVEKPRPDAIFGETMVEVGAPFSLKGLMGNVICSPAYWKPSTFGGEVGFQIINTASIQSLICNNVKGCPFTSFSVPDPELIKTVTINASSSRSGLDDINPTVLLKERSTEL

His-tagged COX-2 = biological target: T2, His-tagged COX-2 (Homo sapiens, UniProt P35354); assay: Surface plasmon resonance; format: binding; details: each at 300 μM; 0.1 μg His-COX-2; 25 °C
T2 sequence (P35354 18-604): T1 sequence (P35354 18-604)

[7] = test system: three different human colon cancer cell lines; details: cited from earlier work

Structure (SMILES): Oc1cc(O)cc(/C=C/c2ccc(O)c(O)c2)c1 [Piceatannol]
- effect on cell cycle progression [1]: inhibited progression through the S phase

Structure (SMILES): Oc1ccc(/C=C/c2cc(O)cc(O)c2)cc1 [RSVL, 3,5,4'-trihydroxy-trans-stilbene, reference compound]
- effect on size of tumors [2]: markedly reduce the size of tumors
- inhibition of cyclooxygenase activity of COX-2 (COX-2): did not inhibit
- growth inhibitory effect on COX-2^+/+ cells [3]: potent growth inhibitory effects
- suppression of growth of COX-2^+/+ cells [3]: 60%
- effect on growth of COX-2^−/− cells [5]: unresponsive

- IC50 (COX-2^+/+ cells): 50 µM
- IC50 [6]: 25 µM
- binding with His-COX-2 (SPR sensograms) (His-tagged COX-2): more strongly than with RSVL
Structure (SMILES): Oc1cc(O)cc(/C=C/c2cc(O)c(O)c(O)c2)c1 [RSVL-2, 3,3’,4’,5’,5-pentahydroxy-trans-stilbene]
- growth inhibitory effect on COX-2^+/+ cells [3]: potent growth inhibitory effects
- suppression of growth of COX-2^+/+ cells [3]: 80%
- inhibition of HT-29 cell growth [4]: inhibited cell growth by day 4
- inhibitory effect on EGF-induced cell transformation compared with resveratrol (JB6 Cl41 cells; EGF-induced JB6 Cl41 transformation, ref 13 (She et al.)): more potent inhibitory effect
- effect on growth of COX-2^−/− cells [5]: unresponsive
- inhibition of anchorage-independent colony formation in soft agar (HT-29 colon cancer cells): even more strongly

Structure (SMILES): COc1ccc(/C=C/c2cc(OC)cc(OC)c2)cc1 [RSVL-3, 3,4’,5-trimethoxy-trans-stilbene]
- growth inhibitory effect on COX-2^+/+ cells [3]: not RSVL-3, exhibited potent growth inhibitory effects
- inhibition of HT-29 cell growth [4]: not RSVL-3, inhibited cell growth
- suppression of PGE2 synthesis ex vivo (COX-2^+/+ cells; COX-2^+/+ cells): not RSVL-3, dose-dependently suppressed PGE2 synthesis
- inhibition of anchorage-independent colony formation in soft agar (HT-29 colon cancer cells): little effect
- inhibition of PGE2 synthesis in vitro [6]: not RSVL-3, inhibited PGE2 synthesis in vitro
- binding with His-COX-2 (SPR sensograms) (His-tagged COX-2): does not bind

Structure (SMILES): Oc1ccc([C@@H]2c3c(O)cc4c(c3[C@@H]3c5c(O)cc6c(c5[C@H]2[C@H]3c2ccc(O)cc2)[C@@H](c2cc(O)cc(O)c2)[C@H](c2ccc(O)cc2)O6)[C@@H](c2cc(O)cc(O)c2)[C@H](c2ccc(O)cc2)O4)cc1 [Vaticanol C]
- suppression of cell growth through induction of apoptosis [7]: markedly suppress cell growth
